Earlier results, collected in patent publication US8440796B2, “Lenalidomide and thalidomide immunoassays” (Saladax Biomedical Inc., priority 2010, dated 2013).
Like-named read-outs stand apart in the source and are kept apart here.

Tests used:
[1] = patients with central nervous system tumors
[2] = healthy subjects
[3] = HIV patients, phase I study

Row | SMILES | variability in Cmax [1] | variability in t1/2 [1] | variability in Cmax [2] | variability in t1/2 [2] | half-life time t1/2 [3] [h] | maximum drug concentration Cmax [3] [ng/mL]
1 | Nc1cccc2c1CN(C1CCC(=O)NC1=O)C2=O (stereo not drawn) [lenalidomide] | up to 78% | up to 122% |  |  |  | 
2 | O=C1CCC(N2C(=O)c3ccccc3C2=O)C(=O)N1 (stereo not drawn) [thalidomide] |  |  | up to 52% | up to 37% | 5.9 ± 2.3 | 2800 ± 2600
